Patent US8933230B2, “Phosphorus-containing group-substituted quinoline, its preparation process, medical composition containing the compounds and application” (priority 2011, dated 2015)

Tests used:
Experiment in all cases: KinomeScan kinase panel
Format in all cases: binding
[1] = molecular target: T1, ABL1(T315I)-nonphosphorylated (Homo sapiens, UniProt P00519, T315I)
T1 construct: purchased DiscoveRx Corporation (KinomeScan)
How it was run: (§1)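 Compound is added at 1000 nM to each assay of the KinomeScan 442-kinase panel. Inhibitory effect is then recorded per kinase.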

[2] = molecular target: T2, ASK1 (Homo sapiens, UniProt Q99683)
T2 construct: purchased DiscoveRx Corporation (KinomeScan)
How it was run: as §1

[3] = molecular target: T3, CDC2L2 (Homo sapiens, UniProt Q9UQ88)
T3 construct: purchased DiscoveRx Corporation (KinomeScan)
How it was run: as §1

[4] = molecular target: T4, CDK11 (Homo sapiens, UniProt Q9BWU1)
T4 construct: purchased DiscoveRx Corporation (KinomeScan)
How it was run: as §1

[5] = molecular target: T5, CDKL3 (Homo sapiens, UniProt Q8IVW4)
T5 construct: purchased DiscoveRx Corporation (KinomeScan)
How it was run: as §1

[6] = molecular target: T6, DDR1 (Homo sapiens, UniProt Q08345)
T6 construct: purchased DiscoveRx Corporation (KinomeScan)
How it was run: as §1

[7] = molecular target: T7, EPHA3 (Homo sapiens, UniProt P29320)
T7 construct: purchased DiscoveRx Corporation (KinomeScan)
How it was run: as §1

[8] = molecular target: T8, EPHB1 (Homo sapiens, UniProt P54762)
T8 construct: purchased DiscoveRx Corporation (KinomeScan)
How it was run: as §1

[9] = molecular target: T9, ERN1 (Homo sapiens, UniProt O75460)
T9 construct: purchased DiscoveRx Corporation (KinomeScan)
How it was run: as §1

[10] = molecular target: T10, FGFR3 (Homo sapiens, UniProt P22607)
T10 construct: purchased DiscoveRx Corporation (KinomeScan)
How it was run: as §1

[11] = molecular target: T11, FLT4 (Homo sapiens, UniProt P35916)
T11 construct: purchased DiscoveRx Corporation (KinomeScan)
How it was run: as §1

[12] = molecular target: T12, GRK1 (Homo sapiens, UniProt Q15835)
T12 construct: purchased DiscoveRx Corporation (KinomeScan)
How it was run: as §1

[13] = molecular target: T13, HIPK1 (Homo sapiens, UniProt Q86Z02)
T13 construct: purchased DiscoveRx Corporation (KinomeScan)
How it was run: as §1

[14] = molecular target: T14, IRAK1 (Homo sapiens, UniProt P51617)
T14 construct: purchased DiscoveRx Corporation (KinomeScan)
How it was run: as §1

[15] = molecular target: T15, JNK2 (Homo sapiens, UniProt P45984)
T15 construct: purchased DiscoveRx Corporation (KinomeScan)
How it was run: as §1

[16] = molecular target: T16, KIT(V559D, T670I) (Homo sapiens, UniProt P10721, T670I/V559D)
T16 construct: purchased DiscoveRx Corporation (KinomeScan)
How it was run: as §1

[17] = molecular target: T17, LYN (Homo sapiens, UniProt P07948)
T17 construct: purchased DiscoveRx Corporation (KinomeScan)
How it was run: as §1

[18] = molecular target: T18, MARK1 (Homo sapiens, UniProt Q9P0L2)
T18 construct: purchased DiscoveRx Corporation (KinomeScan)
How it was run: as §1

[19] = molecular target: T19, MYO3B (Homo sapiens, UniProt Q8WXR4)
T19 construct: purchased DiscoveRx Corporation (KinomeScan)
How it was run: as §1

[20] = molecular target: T20, NEK9 (Homo sapiens, UniProt Q8TD19)
T20 construct: purchased DiscoveRx Corporation (KinomeScan panel)
How it was run: as §1

[21] = molecular target: T21, P38-alpha (Homo sapiens, UniProt Q16539)
T21 construct: purchased DiscoveRx Corporation (KinomeScan panel)
How it was run: as §1

[22] = molecular target: T22, P38-delta (Homo sapiens, UniProt O15264)
T22 construct: purchased DiscoveRx Corporation (KinomeScan panel)
How it was run: as §1

[23] = molecular target: T23, PDGFRB (Homo sapiens, UniProt P09619)
T23 construct: purchased DiscoveRx Corporation (KinomeScan panel)
How it was run: as §1

[24] = molecular target: T24, PRKD1 (Homo sapiens, UniProt Q15139)
T24 construct: purchased DiscoveRx Corporation (KinomeScan)
How it was run: as §1

[25] = molecular target: T25, PRKG1 (Homo sapiens, UniProt Q13976)
T25 construct: purchased DiscoveRx Corporation (KinomeScan)
How it was run: as §1

[26] = molecular target: T26, RIPK5 (Homo sapiens, UniProt Q6XUX3)
T26 construct: purchased DiscoveRx Corporation
How it was run: as §1

[27] = molecular target: T27, STK16 (Homo sapiens, UniProt O75716)
T27 construct: purchased DiscoveRx Corporation (KinomeScan)
How it was run: as §1

[28] = molecular target: T28, STK39 (Homo sapiens, UniProt Q9UEW8)
T28 construct: purchased DiscoveRx Corporation (KinomeScan)
How it was run: as §1

[29] = molecular target: T29, TAOK2 (Homo sapiens, UniProt Q9UL54)
T29 construct: purchased DiscoveRx Corporation (KinomeScan)
How it was run: as §1

[30] = molecular target: T30, TNNI3K (Homo sapiens, UniProt Q59H18)
T30 construct: purchased DiscoveRx Corporation (KinomeScan)
How it was run: as §1

[31] = molecular target: T31, TTK (Homo sapiens, UniProt P33981)
T31 construct: purchased DiscoveRx Corporation (KinomeScan)
How it was run: as §1

[32] = molecular target: T32, ULK1 (Homo sapiens, UniProt O75385)
T32 construct: purchased DiscoveRx Corporation (KinomeScan service)
How it was run: as §1

[33] = molecular target: T33, WEE2 (Homo sapiens, UniProt P0C1S8)
T33 construct: purchased DiscoveRx Corporation (KinomeScan service)
How it was run: as §1

[34] = molecular target: T34, YANK3 (Homo sapiens, UniProt Q86UX6)
T34 construct: purchased DiscoveRx Corporation (KinomeScan service)
How it was run: as §1

[35] = molecular target: T35, YSK1 (Homo sapiens, UniProt O00506)
T35 construct: purchased DiscoveRx Corporation (KinomeScan service)
How it was run: as §1

[36] = molecular target: T36, YSK4 (Homo sapiens, UniProt Q56UN5)
T36 construct: purchased DiscoveRx Corporation (KinomeScan service)
How it was run: as §1

T20 sequence (Q8TD19 whole entry): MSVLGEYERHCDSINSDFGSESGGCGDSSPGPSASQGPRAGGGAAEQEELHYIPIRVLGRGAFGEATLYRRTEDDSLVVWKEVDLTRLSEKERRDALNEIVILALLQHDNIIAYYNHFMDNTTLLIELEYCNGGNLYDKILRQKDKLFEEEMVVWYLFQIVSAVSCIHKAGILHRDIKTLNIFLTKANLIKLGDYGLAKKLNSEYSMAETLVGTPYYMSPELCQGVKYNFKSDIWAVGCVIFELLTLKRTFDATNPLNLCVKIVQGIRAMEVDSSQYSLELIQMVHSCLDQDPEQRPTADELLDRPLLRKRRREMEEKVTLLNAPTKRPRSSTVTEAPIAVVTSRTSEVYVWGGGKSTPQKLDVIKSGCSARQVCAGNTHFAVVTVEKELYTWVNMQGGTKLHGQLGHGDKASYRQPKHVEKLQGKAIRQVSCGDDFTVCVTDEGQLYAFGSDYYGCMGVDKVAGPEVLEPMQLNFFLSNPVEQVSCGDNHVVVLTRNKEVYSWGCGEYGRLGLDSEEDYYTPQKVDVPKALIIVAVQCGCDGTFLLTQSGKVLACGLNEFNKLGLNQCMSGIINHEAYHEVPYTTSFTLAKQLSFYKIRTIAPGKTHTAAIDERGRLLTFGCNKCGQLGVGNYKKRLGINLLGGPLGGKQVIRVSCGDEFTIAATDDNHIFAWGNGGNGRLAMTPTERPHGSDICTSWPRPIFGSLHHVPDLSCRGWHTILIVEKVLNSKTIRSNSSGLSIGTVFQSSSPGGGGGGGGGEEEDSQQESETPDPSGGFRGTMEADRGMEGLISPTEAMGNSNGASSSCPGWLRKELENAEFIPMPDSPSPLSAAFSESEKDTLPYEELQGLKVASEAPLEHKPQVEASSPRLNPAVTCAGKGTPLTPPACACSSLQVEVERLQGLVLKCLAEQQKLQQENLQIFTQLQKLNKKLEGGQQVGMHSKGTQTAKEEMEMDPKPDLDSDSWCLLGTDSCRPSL
T4 sequence (Q9BWU1 whole entry): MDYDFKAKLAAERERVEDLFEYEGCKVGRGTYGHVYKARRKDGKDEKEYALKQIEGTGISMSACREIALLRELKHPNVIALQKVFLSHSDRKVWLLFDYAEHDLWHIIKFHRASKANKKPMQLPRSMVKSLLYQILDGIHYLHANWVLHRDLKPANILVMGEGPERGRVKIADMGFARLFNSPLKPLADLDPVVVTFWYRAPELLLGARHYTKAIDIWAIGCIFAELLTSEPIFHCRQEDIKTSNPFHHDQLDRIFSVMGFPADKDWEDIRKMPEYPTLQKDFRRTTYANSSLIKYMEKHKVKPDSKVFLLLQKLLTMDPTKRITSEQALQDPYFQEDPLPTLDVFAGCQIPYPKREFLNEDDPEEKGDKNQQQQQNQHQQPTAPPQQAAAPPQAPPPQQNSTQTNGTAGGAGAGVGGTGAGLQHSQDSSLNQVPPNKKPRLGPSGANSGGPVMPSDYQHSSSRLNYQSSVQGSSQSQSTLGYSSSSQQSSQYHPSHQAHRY
T32 sequence (O75385 whole entry): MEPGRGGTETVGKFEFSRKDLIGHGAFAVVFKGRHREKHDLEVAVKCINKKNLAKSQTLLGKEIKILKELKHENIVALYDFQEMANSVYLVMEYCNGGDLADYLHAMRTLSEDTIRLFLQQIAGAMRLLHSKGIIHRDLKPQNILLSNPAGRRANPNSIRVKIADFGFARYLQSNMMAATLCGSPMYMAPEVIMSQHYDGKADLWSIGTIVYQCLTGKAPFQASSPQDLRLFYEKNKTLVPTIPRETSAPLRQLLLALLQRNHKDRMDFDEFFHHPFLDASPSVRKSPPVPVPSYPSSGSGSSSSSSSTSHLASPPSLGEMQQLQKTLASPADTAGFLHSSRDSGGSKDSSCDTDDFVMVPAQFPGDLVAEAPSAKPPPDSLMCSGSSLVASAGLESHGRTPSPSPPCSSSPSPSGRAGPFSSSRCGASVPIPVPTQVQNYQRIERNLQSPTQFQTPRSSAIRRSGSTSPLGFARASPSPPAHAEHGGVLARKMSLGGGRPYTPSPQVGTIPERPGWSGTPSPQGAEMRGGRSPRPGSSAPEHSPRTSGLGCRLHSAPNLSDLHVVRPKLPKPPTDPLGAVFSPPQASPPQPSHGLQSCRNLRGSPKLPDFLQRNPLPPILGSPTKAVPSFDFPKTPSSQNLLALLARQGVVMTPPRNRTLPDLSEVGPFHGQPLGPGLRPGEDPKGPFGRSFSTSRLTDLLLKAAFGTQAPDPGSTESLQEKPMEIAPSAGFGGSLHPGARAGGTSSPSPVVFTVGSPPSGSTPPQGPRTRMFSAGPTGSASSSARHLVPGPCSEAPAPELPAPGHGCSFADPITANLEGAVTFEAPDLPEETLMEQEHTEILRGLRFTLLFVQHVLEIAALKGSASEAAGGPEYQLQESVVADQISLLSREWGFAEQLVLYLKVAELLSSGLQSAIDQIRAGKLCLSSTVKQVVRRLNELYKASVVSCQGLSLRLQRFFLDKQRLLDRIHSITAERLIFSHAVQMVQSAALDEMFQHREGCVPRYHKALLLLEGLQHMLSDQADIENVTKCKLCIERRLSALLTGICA
T24 sequence (Q15139 whole entry): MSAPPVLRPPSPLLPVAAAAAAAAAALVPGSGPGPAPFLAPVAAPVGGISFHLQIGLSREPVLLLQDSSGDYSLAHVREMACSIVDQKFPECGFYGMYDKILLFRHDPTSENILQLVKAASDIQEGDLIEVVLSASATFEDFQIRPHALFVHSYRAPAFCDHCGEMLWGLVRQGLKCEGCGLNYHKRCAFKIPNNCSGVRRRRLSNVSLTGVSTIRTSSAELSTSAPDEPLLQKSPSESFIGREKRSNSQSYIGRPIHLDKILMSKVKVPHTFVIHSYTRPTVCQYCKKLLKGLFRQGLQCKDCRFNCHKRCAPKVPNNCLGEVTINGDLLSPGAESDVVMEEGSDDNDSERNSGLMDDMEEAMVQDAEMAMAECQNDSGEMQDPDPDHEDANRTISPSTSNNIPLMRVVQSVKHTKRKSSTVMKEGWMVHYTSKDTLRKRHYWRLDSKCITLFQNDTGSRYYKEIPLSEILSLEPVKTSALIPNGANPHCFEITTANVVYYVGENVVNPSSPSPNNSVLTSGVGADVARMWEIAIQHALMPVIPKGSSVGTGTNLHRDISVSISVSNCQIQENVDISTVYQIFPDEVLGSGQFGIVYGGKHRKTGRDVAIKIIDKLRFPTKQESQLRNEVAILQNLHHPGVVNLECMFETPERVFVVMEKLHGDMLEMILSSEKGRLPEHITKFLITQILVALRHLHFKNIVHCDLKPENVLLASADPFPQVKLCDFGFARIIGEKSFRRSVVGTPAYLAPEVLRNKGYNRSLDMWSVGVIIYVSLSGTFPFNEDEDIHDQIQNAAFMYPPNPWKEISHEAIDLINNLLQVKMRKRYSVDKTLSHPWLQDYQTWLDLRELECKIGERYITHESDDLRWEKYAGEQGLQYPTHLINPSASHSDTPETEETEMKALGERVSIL
T7 sequence (P29320 21-983): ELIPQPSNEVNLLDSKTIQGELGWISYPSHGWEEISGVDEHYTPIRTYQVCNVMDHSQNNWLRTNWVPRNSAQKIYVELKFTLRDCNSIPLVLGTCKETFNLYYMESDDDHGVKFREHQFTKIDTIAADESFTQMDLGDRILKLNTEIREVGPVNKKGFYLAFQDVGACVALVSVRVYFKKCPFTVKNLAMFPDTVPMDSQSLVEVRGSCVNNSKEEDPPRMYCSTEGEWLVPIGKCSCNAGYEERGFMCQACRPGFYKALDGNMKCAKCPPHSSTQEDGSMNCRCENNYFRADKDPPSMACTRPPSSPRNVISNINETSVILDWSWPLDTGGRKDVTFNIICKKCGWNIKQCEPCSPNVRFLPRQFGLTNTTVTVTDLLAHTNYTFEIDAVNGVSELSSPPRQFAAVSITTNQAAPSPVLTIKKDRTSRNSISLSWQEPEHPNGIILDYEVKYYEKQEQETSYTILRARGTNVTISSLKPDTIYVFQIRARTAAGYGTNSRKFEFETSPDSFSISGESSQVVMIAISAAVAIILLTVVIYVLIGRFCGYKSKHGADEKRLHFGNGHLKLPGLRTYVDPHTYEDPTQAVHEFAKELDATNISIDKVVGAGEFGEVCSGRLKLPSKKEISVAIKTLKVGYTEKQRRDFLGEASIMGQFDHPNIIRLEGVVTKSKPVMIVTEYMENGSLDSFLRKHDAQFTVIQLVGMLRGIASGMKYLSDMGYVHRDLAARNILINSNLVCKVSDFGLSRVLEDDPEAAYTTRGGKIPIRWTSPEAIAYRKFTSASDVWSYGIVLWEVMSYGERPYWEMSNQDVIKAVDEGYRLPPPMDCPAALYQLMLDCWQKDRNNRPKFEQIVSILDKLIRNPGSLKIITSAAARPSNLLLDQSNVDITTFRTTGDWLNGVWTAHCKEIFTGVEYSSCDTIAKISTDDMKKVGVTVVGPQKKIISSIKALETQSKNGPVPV
T33 sequence (P0C1S8 whole entry): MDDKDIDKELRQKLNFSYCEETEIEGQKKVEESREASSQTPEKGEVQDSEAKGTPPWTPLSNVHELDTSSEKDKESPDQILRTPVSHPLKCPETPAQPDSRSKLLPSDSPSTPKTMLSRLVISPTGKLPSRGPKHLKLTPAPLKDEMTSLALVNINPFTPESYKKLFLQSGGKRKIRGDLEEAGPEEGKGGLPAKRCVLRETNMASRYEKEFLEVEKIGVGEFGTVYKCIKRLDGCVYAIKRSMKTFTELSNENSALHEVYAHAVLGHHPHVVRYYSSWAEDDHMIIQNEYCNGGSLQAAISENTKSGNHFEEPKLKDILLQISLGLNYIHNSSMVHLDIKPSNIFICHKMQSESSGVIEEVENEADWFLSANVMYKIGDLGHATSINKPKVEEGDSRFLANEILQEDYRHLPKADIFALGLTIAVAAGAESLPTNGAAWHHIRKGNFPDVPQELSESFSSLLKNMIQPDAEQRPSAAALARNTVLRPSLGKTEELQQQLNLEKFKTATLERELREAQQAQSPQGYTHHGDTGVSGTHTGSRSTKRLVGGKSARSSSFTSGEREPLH

SMILES: CCOP(=O)(CN1CCC(COc2cc3nccc(Oc4ccc(NC(=O)C5(C(=O)Nc6ccc(F)cc6)CC5)cc4F)c3cc2OC)CC1)OCC [Example 10, N1-[4-[[7-[[1-(diethoxyphosphorylmethyl)-4-piperidinyl]methoxyl]-6-methoxyl-4-quinolyl]oxyl]-3-fluorophenyl]-N1′-(4-fluorophenyl)cyclopropane-1,1-dicarboxamide]
- % Ctrl@1000 nM [1]: 3.8 % Ctrl
- % Ctrl@1000 nM [2]: 100 % Ctrl
- % Ctrl@1000 nM [3]: 100 % Ctrl
- % Ctrl@1000 nM [4]: 67 % Ctrl
- % Ctrl@1000 nM [5]: 100 % Ctrl
- % Ctrl@1000 nM [6]: 0 % Ctrl
- % Ctrl@1000 nM [7]: 6 % Ctrl
- % Ctrl@1000 nM [8]: 4.6 % Ctrl
- % Ctrl@1000 nM [9]: 81 % Ctrl
- % Ctrl@1000 nM [10]: 69 % Ctrl
- % Ctrl@1000 nM [11]: 0.2 % Ctrl
- % Ctrl@1000 nM [12]: 100 % Ctrl
- % Ctrl@1000 nM [13]: 92 % Ctrl
- % Ctrl@1000 nM [14]: 100 % Ctrl
- % Ctrl@1000 nM [15]: 93 % Ctrl
- % Ctrl@1000 nM [16]: 1.4 % Ctrl
- % Ctrl@1000 nM [17]: 18 % Ctrl
- % Ctrl@1000 nM [18]: 100 % Ctrl
- % Ctrl@1000 nM [19]: 100 % Ctrl
- % Ctrl@1000 nM [20]: 66 % Ctrl
- % Ctrl@1000 nM [21]: 53 % Ctrl
- % Ctrl@1000 nM [22]: 53 % Ctrl
- % Ctrl@1000 nM [23]: 0 % Ctrl
- % Ctrl@1000 nM [24]: 100 % Ctrl
- % Ctrl@1000 nM [25]: 100 % Ctrl
- % Ctrl@1000 nM [26]: 82 % Ctrl
- % Ctrl@1000 nM [27]: 77 % Ctrl
- % Ctrl@1000 nM [28]: 100 % Ctrl
- % Ctrl@1000 nM [29]: 70 % Ctrl
- % Ctrl@1000 nM [30]: 94 % Ctrl
- % Ctrl@1000 nM [31]: 84 % Ctrl
- % Ctrl@1000 nM [32]: 100 % Ctrl
- % Ctrl@1000 nM [33]: 100 % Ctrl
- % Ctrl@1000 nM [34]: 100 % Ctrl
- % Ctrl@1000 nM [35]: 57 % Ctrl
- % Ctrl@1000 nM [36]: 1.7 % Ctrl
